Here are results for 7 molecules from patent EP0275431A1, “Novel anthracycline derivatives, a process for preparing same and their use as medicaments” (MICROBIAL CHEMISTRY RESEARCH FOUNDATION, priority 1986, dated 1988).

Data set [1] is described as follows: Solubility in phosphate buffer solution (pH 7.4) at room temperature. The following applies: aqueous buffer. The format is physicochemical. The protocol:
The phosphate buffer solution was prepared by mixing 0.05M potassium dihydrogenphosphate (KH2PO4) with an aqueous solution of sodium hydroxide.

Data set [2] relates to mouse leukemia L-1210 cells. The data set is described as follows: Antitumor activity: increase of life span of mice transplanted intraperitoneally with leukemia L-1210 cells. The following applies: beginning 24 hours after transplantation, observed for 30 days, CDF mice.
Method: To assess the antitumor activity of the compounds of this invention against tumors in test animals, 1 x 10^5 mouse leukemia L-1210 cells mouse were transplanted intraperitoneally to CDF, mice. […] The survival time, in days, of the compound-treated group (T) was calculated, and that of the control group (C) receiving physiological saline solution alone was also calculated. Then, the increase of life span (T/C, %) was determined.
The mark [3] stands for this setting: Dose 0.15 mg/kg/day intraperitoneally for 9 consecutive days.
[4] abbreviates: Dose 0.3 mg/kg/day intraperitoneally for 9 consecutive days.
[5] abbreviates: Dose 0.6 mg/kg/day intraperitoneally for 9 consecutive days.
Setting [6] is: Dose 1.25 mg/kg/day intraperitoneally for 9 consecutive days.
Where [7] appears, read: Dose 2.5 mg/kg/day intraperitoneally for 9 consecutive days.
Setting [8] is: Dose 5 mg/kg/day intraperitoneally for 9 consecutive days.

Each structure is given as a SMILES string. In brackets after ≈: the same amount, converted by molar mass.

In general, solubility refers to the concentration that dissolves in the medium under given conditions. In data set [1], `COc1cccc2c1C(=O)c1c(O)c3c(c(O)c1C2=O)CC(O)(C(=O)COC(=O)CCCCC(=O)O)CC3OC1OC(C)C(O)C(O)C1F` [Compound 9 of Example 4(b), 7-0-(2.6-dideoxy-2-fluoro-a-L-talopyranosyl) adriamycinone 14-0-hemiadipate] displayed a solubility of 33 mg/mL (≈ 47.8 mM). In addition, the “Increase of life span (T/C, %)” value in data set [2] (setting [3]) was 112%; in data set [2] (setting [4]), 141%; in data set [2] (setting [5]), 165%; in data set [2] (setting [6]) it was 265%; in data set [2] (setting [7]), over 353%; in data set [2] (setting [8]), over 353%.

In data set [1], `COc1cccc2c1C(=O)c1c(O)c3c(c(O)c1C2=O)CC(O)(C(=O)COC(=O)CCCC(=O)O)CC3OC1OC(C)C(O)C(O)C1F` [Compound 7 of Example 3(b), 7-0-(2.6-dideoxy-2-fluoro-a-L-talopyranosyl) adriamycinone 14-0-hemiglutarate] yielded a solubility of 26 mg/mL (≈ 38.4 mM). The “Increase of life span (T/C, %)” value in data set [2] (setting [3]) is 129%; in data set [2] (setting [4]), 129%; in data set [2] (setting [5]), over 235%; in data set [2] (setting [6]), 282%; in data set [2] (setting [7]), over 294%; in data set [2] (setting [8]) it was over 306%.

`COc1cccc2c1C(=O)c1c(O)c3c(c(O)c1C2=O)CC(O)(C(=O)COC(=O)CCCCCC(=O)O)CC3OC1OC(C)C(O)C(O)C1F` [Compound 11 of Example 5(b), 7-0-(2,6-dideoxy-2-fluoro-α-L-talopyranosyl) adriamycinone 14-0-hemipimelate] yielded a solubility in data set [1] of 33 mg/mL (≈ 46.8 mM). In addition, the “Increase of life span (T/C, %)” value in data set [2] (setting [3]) is given as 165%; in data set [2] (setting [4]) it was 171%; in data set [2] (setting [5]), 176%; in data set [2] (setting [6]), over 294%; in data set [2] (setting [7]), over 271%; in data set [2] (setting [8]), over 353%.

In turn, `COc1cccc2c1C(=O)c1c(O)c3c(c(O)c1C2=O)CC(O)(C(=O)CO)CC3OC1OC(C)C(O)C(O)C1F` [Control, 7-O-(2,6-dideoxy-2-fluoro-α-L-talopyranosyl)adriamycinone, reference compound] displayed a solubility in data set [1] of under 1 mg/mL.

On to `COc1cccc2c1C(=O)c1c(O)c3c(c(O)c1C2=O)CC(O)(C(=O)COC(=O)CCCCCCC(=O)O)CC3OC1OC(C)C(O)C(O)C1F` [Compound 13 of Example 6(b), 7-0-(2,6-dideoxy-2-fluoro-α-L-talopyranosyl) adriamycinone 14-0-hemisuberate], for which, in data set [1], the solubility was determined as 30 mg/mL (≈ 41.7 mM).

In data set [1], `COc1cccc2c1C(=O)c1c(O)c3c(c(O)c1C2=O)CC(O)(C(=O)COC(=O)CCC(=O)O)CC3OC1OC(C)C(O)C(O)C1F` [Compound 5 of Example 2(b), 7-0-(2,6-dideoxy-2-fluoro-a-L-talopyranosyl) adriamycinone 14-0-hemisuccinate] registered a solubility of 25 mg/mL (≈ 37.7 mM). The “Increase of life span (T/C, %)” value in data set [2] (setting [4]) was 124%; in data set [2] (setting [5]) it was over 124%; in data set [2] (setting [6]) it was over 292%; in data set [2] (setting [7]) it was over 353%; in data set [2] (setting [8]) it was over 353%.

In data set [1], `CCCCC(=O)OCC(=O)C1(O)Cc2c(O)c3c(c(O)c2C(OC2OC(C)C(O)C(O)C2F)C1)C(=O)c1c(OC)cccc1C3=O` [Compound 3 of Example 1(b), 7-0-(2.6-dideoxy-2-fluoro-α-L-talopyranosyl) adriamycinone 14-0-valerate] gave a solubility of under 1 mg/mL. The “Increase of life span (T/C, %)” value in data set [2] (setting [3]) is 135%; in data set [2] (setting [4]) it was 135%; in data set [2] (setting [5]), over 353%; in data set [2] (setting [6]), over 353%; in data set [2] (setting [7]), over 282%; in data set [2] (setting [8]), over 306%.
